Source: the NIST ThermoML archive (doi:10.1021/je900387e)

Assay: xn = mol fraction of the nth substance listed
Settings: Liquid, Pycnometric method

CCCCCl [1-chlorobutane] + O=C=O
Settings	mass density [kg/m3]
313.1 K, 10970 kPa, x1 = 0.0744	828
313.1 K, 11030 kPa, x1 = 0.0243	763
313.1 K, 11220 kPa, x1 = 0.0483	800
313.1 K, 11230 kPa, x1 = 0.0981	855
313.1 K, 11350 kPa, x1 = 0.0744	833
313.1 K, 11500 kPa, x1 = 0.1488	870
313.1 K, 11510 kPa, x1 = 0.0483	806
313.1 K, 11780 kPa, x1 = 0.0744	839
313.1 K, 11810 kPa, x1 = 0.0483	811
313.1 K, 11820 kPa, x1 = 0.0981	862
313.1 K, 12110 kPa, x1 = 0.0483	816
313.1 K, 12170 kPa, x1 = 0.1488	875
313.1 K, 12220 kPa, x1 = 0.0744	844
313.1 K, 12430 kPa, x1 = 0.0744	847
313.1 K, 12440 kPa, x1 = 0.0981	869
313.1 K, 12540 kPa, x1 = 0.1488	878
313.1 K, 12780 kPa, x1 = 0.0981	872
313.1 K, 12890 kPa, x1 = 0.1488	880
313.1 K, 13000 kPa, x1 = 0.0981	874
313.1 K, 13240 kPa, x1 = 0.1488	883
313.1 K, 13660 kPa, x1 = 0.1488	885
313.1 K, 14020 kPa, x1 = 0.1488	888
313.1 K, 14460 kPa, x1 = 0.1488	890
313.1 K, 14830 kPa, x1 = 0.1488	893
314.5 K, 8320 kPa, x1 = 0.0243	495
314.5 K, 8330 kPa, x1 = 0.0243	501
314.5 K, 8360 kPa, x1 = 0.0243	510
314.5 K, 8390 kPa, x1 = 0.0243	522
314.5 K, 8430 kPa, x1 = 0.0243	531
314.5 K, 8460 kPa, x1 = 0.0243	541
314.5 K, 8490 kPa, x1 = 0.0243	552
314.5 K, 8530 kPa, x1 = 0.0243	562
314.5 K, 8590 kPa, x1 = 0.0243	575
314.5 K, 8650 kPa, x1 = 0.0243	588
314.5 K, 8720 kPa, x1 = 0.0243	602
314.5 K, 8820 kPa, x1 = 0.0243	617
314.5 K, 8930 kPa, x1 = 0.0243	632
314.5 K, 9080 kPa, x1 = 0.0243	648
314.5 K, 9270 kPa, x1 = 0.0243	664
314.5 K, 9480 kPa, x1 = 0.0243	680
314.5 K, 9790 kPa, x1 = 0.0243	698
314.5 K, 10150 kPa, x1 = 0.0243	715
314.5 K, 10480 kPa, x1 = 0.0243	729
314.5 K, 10730 kPa, x1 = 0.0243	738
314.5 K, 11030 kPa, x1 = 0.0243	748
314.5 K, 11370 kPa, x1 = 0.0243	758
314.5 K, 11740 kPa, x1 = 0.0243	767
317.9 K, 7340 kPa, x1 = 0.1488	805
317.9 K, 7730 kPa, x1 = 0.0981	761
317.9 K, 7740 kPa, x1 = 0.1488	811
317.9 K, 7900 kPa, x1 = 0.0981	766
317.9 K, 8050 kPa, x1 = 0.0744	713
317.9 K, 8060 kPa, x1 = 0.1488	815
317.9 K, 8090 kPa, x1 = 0.0981	771
317.9 K, 8230 kPa, x1 = 0.0744	720
317.9 K, 8310 kPa, x1 = 0.0981	777
317.9 K, 8360 kPa, x1 = 0.0744	727
317.9 K, 8450 kPa, x1 = 0.1488	820
317.9 K, 8520 kPa, x1 = 0.0744	733
317.9 K, 8530 kPa, x1 = 0.0483	630
317.9 K, 8530 kPa, x1 = 0.0981	782
317.9 K, 8560 kPa, x1 = 0.0243	417
317.9 K, 8590 kPa, x1 = 0.0243	423
317.9 K, 8590 kPa, x1 = 0.0483	636
317.9 K, 8630 kPa, x1 = 0.0243	433
317.9 K, 8670 kPa, x1 = 0.0243	443
317.9 K, 8690 kPa, x1 = 0.0483	646
317.9 K, 8690 kPa, x1 = 0.0744	740
317.9 K, 8720 kPa, x1 = 0.0243	453
317.9 K, 8750 kPa, x1 = 0.0243	464
317.9 K, 8770 kPa, x1 = 0.0981	787
317.9 K, 8790 kPa, x1 = 0.0243	473
317.9 K, 8810 kPa, x1 = 0.0483	656
317.9 K, 8830 kPa, x1 = 0.1488	823
317.9 K, 8850 kPa, x1 = 0.0243	484
317.9 K, 8880 kPa, x1 = 0.0744	746
317.9 K, 8890 kPa, x1 = 0.0243	496
317.9 K, 8940 kPa, x1 = 0.0243	507
317.9 K, 8940 kPa, x1 = 0.0483	667
317.9 K, 8990 kPa, x1 = 0.0243	520
317.9 K, 9050 kPa, x1 = 0.0981	793
317.9 K, 9060 kPa, x1 = 0.0243	534
317.9 K, 9080 kPa, x1 = 0.0483	678
317.9 K, 9110 kPa, x1 = 0.0744	753
317.9 K, 9140 kPa, x1 = 0.0243	549
317.9 K, 9200 kPa, x1 = 0.0483	689
317.9 K, 9230 kPa, x1 = 0.0243	565
317.9 K, 9240 kPa, x1 = 0.1488	828
317.9 K, 9340 kPa, x1 = 0.0243	582
317.9 K, 9350 kPa, x1 = 0.0981	799
317.9 K, 9360 kPa, x1 = 0.0744	760
317.9 K, 9460 kPa, x1 = 0.0243	599
317.9 K, 9490 kPa, x1 = 0.0483	701
317.9 K, 9580 kPa, x1 = 0.0243	615
317.9 K, 9600 kPa, x1 = 0.0744	766
317.9 K, 9650 kPa, x1 = 0.0981	804
317.9 K, 9660 kPa, x1 = 0.1488	832
317.9 K, 9740 kPa, x1 = 0.0243	630
317.9 K, 9770 kPa, x1 = 0.0483	713
317.9 K, 9840 kPa, x1 = 0.0243	639
317.9 K, 9890 kPa, x1 = 0.0744	773
317.9 K, 9950 kPa, x1 = 0.0243	647
317.9 K, 10010 kPa, x1 = 0.0981	810
317.9 K, 10030 kPa, x1 = 0.0243	654
317.9 K, 10090 kPa, x1 = 0.0483	725
317.9 K, 10090 kPa, x1 = 0.1488	836
317.9 K, 10220 kPa, x1 = 0.0744	780
317.9 K, 10350 kPa, x1 = 0.0483	734
317.9 K, 10350 kPa, x1 = 0.0981	815
317.9 K, 10560 kPa, x1 = 0.0744	787
317.9 K, 10580 kPa, x1 = 0.1488	841
317.9 K, 10650 kPa, x1 = 0.0483	742
317.9 K, 10750 kPa, x1 = 0.0981	822
317.9 K, 10940 kPa, x1 = 0.0744	794
317.9 K, 10970 kPa, x1 = 0.0483	752
317.9 K, 11090 kPa, x1 = 0.1488	847
317.9 K, 11180 kPa, x1 = 0.0981	827
317.9 K, 11340 kPa, x1 = 0.0483	761
317.9 K, 11370 kPa, x1 = 0.0744	802
317.9 K, 11620 kPa, x1 = 0.1488	851
317.9 K, 11670 kPa, x1 = 0.0981	834
317.9 K, 11740 kPa, x1 = 0.0483	770
317.9 K, 11860 kPa, x1 = 0.0744	810
317.9 K, 11940 kPa, x1 = 0.1488	853
317.9 K, 12140 kPa, x1 = 0.0981	839
317.9 K, 12220 kPa, x1 = 0.0483	780
317.9 K, 12240 kPa, x1 = 0.1488	856
317.9 K, 12370 kPa, x1 = 0.0744	817
317.9 K, 12520 kPa, x1 = 0.1488	858
317.9 K, 12690 kPa, x1 = 0.0981	846
317.9 K, 12740 kPa, x1 = 0.0483	790
317.9 K, 12850 kPa, x1 = 0.1488	861
317.9 K, 12930 kPa, x1 = 0.0744	825
317.9 K, 13140 kPa, x1 = 0.1488	863
317.9 K, 13250 kPa, x1 = 0.0981	852
317.9 K, 13320 kPa, x1 = 0.0483	800
317.9 K, 13440 kPa, x1 = 0.1488	865
317.9 K, 13510 kPa, x1 = 0.0744	833
317.9 K, 13620 kPa, x1 = 0.0483	805
317.9 K, 13800 kPa, x1 = 0.1488	868
317.9 K, 13830 kPa, x1 = 0.0981	859
317.9 K, 13950 kPa, x1 = 0.0483	811
317.9 K, 14180 kPa, x1 = 0.0744	841
317.9 K, 14190 kPa, x1 = 0.1488	871
317.9 K, 14300 kPa, x1 = 0.0483	816
317.9 K, 14480 kPa, x1 = 0.1488	873
317.9 K, 14530 kPa, x1 = 0.0981	865
317.9 K, 14860 kPa, x1 = 0.1488	875
317.9 K, 14910 kPa, x1 = 0.0744	849
317.9 K, 15220 kPa, x1 = 0.0981	872
322.7 K, 7900 kPa, x1 = 0.1488	782
322.7 K, 8140 kPa, x1 = 0.1488	786
322.7 K, 8330 kPa, x1 = 0.0981	728
322.7 K, 8380 kPa, x1 = 0.1488	789
322.7 K, 8510 kPa, x1 = 0.0981	734
322.7 K, 8620 kPa, x1 = 0.0243	328
322.7 K, 8620 kPa, x1 = 0.0981	739
322.7 K, 8630 kPa, x1 = 0.0744	669
322.7 K, 8670 kPa, x1 = 0.1488	794
322.7 K, 8690 kPa, x1 = 0.0243	336
322.7 K, 8740 kPa, x1 = 0.0744	675
322.7 K, 8750 kPa, x1 = 0.0243	343
322.7 K, 8780 kPa, x1 = 0.0981	744
322.7 K, 8810 kPa, x1 = 0.0243	351
322.7 K, 8860 kPa, x1 = 0.0243	360
322.7 K, 8860 kPa, x1 = 0.0744	683
322.7 K, 8920 kPa, x1 = 0.0243	368
322.7 K, 8940 kPa, x1 = 0.0981	749
322.7 K, 8970 kPa, x1 = 0.1488	798
